One assay concerns MYC expression. The assay can be described thus: Inhibition of MYC expression in MV-4-11 cells. The assay is classed as cell-based. The following applies: 4 h; for IC50: QuantiGene 2.0, geometric mean; for Maximum Inhibition (%): maximum inhibition of MYC expression. The procedure: Pharmacologic inhibition of MYC is achievable through targeting BET bromodomains through small molecule binder or degrader mechanisms. Such inhibitors may have clinical utility given the widespread pathogenetic role of MYC in cancer. See, e.g., Mertz J, et al., “Targeting MYC dependence in cancer by inhibiting BET bromodomains,” (2011) Proc. Natl. Acad. Sci. USA, Vol. 108 (40), pp. 16669-16674.
To determine the inhibition of MYC expression, MV-4-11 cells (ATCC) were plated at 10,000 cells per well in 96-well plates in RPMI1640 media supplemented with 10% fetal bovine serum and 2 mM L-glutamine. Test compounds diluted in DMSO were transferred to the cell plates, keeping final DMSO concentration consistent at 0.1%, and incubated for 4 h at 37° C. Lysis and analysis for MYC expression were carried out using QuantiGene 2.0 reagents (Affymetrix/eBioscience, probe set cat #SA-50182) and following the vendor's instructions. Luminescence was read using an EnVision plate reader (PerkinElmer) and IC50s generated in Genedata Screener using a 4-parameter non-linear regression fit.
Effective degraders will surpass this and inhibit >95% of MYC, thus following the maximum inhibition within this assay provides valuable SAR. Where more than one measurement was performed for the same assay, the value reported is the geometric mean of all values.

The next assay addresses BRD4 (Homo sapiens (Human), UniProt O60885). The experiment in a line: BRD4 degradation assay in EOL-1 cells, high content fluorescence imaging. The format is cell-based. The following applies: 4 hours; for DC50: BRD4 immunofluorescence, read-out: EOL-1 EC50; for EOL-1 Sinf (%): maximum degradation, percent change in protein level (-100% = complete loss). The procedure:
PC3 (Steap-1) prostate cancer cells: PC3 (Steap-1) prostate cancer cells (PC3 cells overexpressing the surface protein Steap-1) were seeded on day 1 at a density of 200,000 cells/mL in 45 μl/well in cell plates in a 384 well Greiner/Perkin Elmer Cell Carrier TC Treated plate (part #6007430) in Assay Medium (RPMI, 10% FBS, 2 mM Glutamax). Cells were incubated overnight at 37° C. degrees. On day 2, compounds were serially diluted 3-fold in DMSO spanning the concentrations 10 mM to 8.6 nM, in 384 well clear polypropylene plates (Greiner Cat #781201). DMSO and 10 mM of a control PROTAC (dBET1, as described in WO 2017/024317, p. 235, structure below) (control compound) were added to designated wells. Compounds and controls were diluted 50-fold (2 μl of DMSO stock into 98 μl) into Assay Medium. 5 μl of the diluted compounds was transferred to the cell plates. The final top concentration of the test compounds in the cell plates was 20 μM. Cell plates were incubated at 37° C., for 4 hours. Fixation and permeabilization were carried out using a Biotek EL406 plate washer and dispenser as follows. Cells were fixed by addition of 15 μL of 16% paraformaldehyde (Electron Microscopy Sciences #15710-S) directly to the 50 μL cell culture medium in each well using the peristaltic pump 5 μL cassette on a Biotek EL406 (final concentration of formaldehyde was 3.7% w/v). Samples were incubated 30 minutes. Well contents were aspirated and 50 μL/well of Phosphate Buffered Saline (PBS) containing 0.5% w/v bovine serum albumen, 0.5% v/v Triton X-100 (Antibody Dilution Buffer) was added to each well. Samples were incubated for 30 minutes. Well contents were aspirated and washed 3 times with 100 μL/well of PBS.
EOL-1 cells: The BRD4 degradation assay was performed on EOL-1 cells using the same procedure as described above for PC3 (Steap-1) prostate cancer cells, except EOL-1 cells were seeded at 1,000,000 cells/mL. Following aspiration and washing of the well contents with 100 μL/well of PBS, 40 μL PBS plus 10% normal goat serum was added per well for 20 minutes at room temperature.
For both the PC3 and EOL-1 cell assays, immunofluorescence staining of BRD4 was carried out using a Biotek EL406 plate washer and dispenser as follows. The well supernatant was aspirated from the wells and 25 μL/well of rabbit mAb Anti-BRD4 [EPR5150(2)] abeam 128874 diluted 1:500 in Antibody Dilution Buffer is dispensed. Samples were incubated for 2 hours at room temperature. Samples were washed 4 times with 100 μL/well of PBS. 25 μL/well of secondary antibody solution (Goat Anti-Rabbit IgG, DyLight 488 Conjugated Highly Cross-adsorbed #35553 1:1000) diluted 1:1000 and Hoechst 33342 1 μg/ml diluted in Antibody Dilution Buffer) were dispensed into each well. 16 wells of the plate, which were designated as ‘no primary antibody” wells, received only Antibody Dilution Buffer (without anti-BRD4 antibody). Samples were incubated for 2 hours at room temperature. Samples were washed 3 times with 100 μL/well of PBS using a Biotek EL406. Quantitative fluorescence imaging of BRD4 was carried out using a Phenix (Perkin Elmer). Fluorescence images of the samples (Channel 1: Hoechst33342 (DNA stain); Channel 2: 488 nm (BRD4 stain)) were acquired. Channel 1 (DNA stain) was used to define the “Region of Interest” (ROI) nuclear region. Measurements of BRD4 average immunofluorescence intensity within the ROI (nuclear region), were made on a per cell basis and averaged over all the measured cells. Data analysis was carried out using Genedata Screener Software, with DMSO and “no primary antibody” samples being used to define the 0% and 100% changes in BRD4. The “Robust Fit” method was used to define the inflexion point of curve (EC50) and the plateau of the maximal effect (Sinf). The Sinf value reports degradation as percent change in protein level, so complete loss of the protein target is −100%. […]

Consider `Cc1ncsc1-c1ccc(C2(C)NC(C3C[C@@H](O)CN3C(=O)C(c3cc(OCCN4CC[C@H](NC(=O)c5cc6c(cc5CS(C)(=O)=O)-c5cn(C)c(=O)c7[nH]cc(c57)CN6c5ncc(F)cc5F)C4)no3)C(C)C)=NC2=O)cc1` (single isomer, unassigned) [Example 1002.1], for which, in the assay on MYC expression, the IC50 turned out to be 51.5 nM and the “Maximum Inhibition (%)” value is recorded as 76.4%. Besides, the DC50 on BRD4 is > 20000 nM.

As to `Cc1ncsc1-c1ccc(C2(C)NC(C3C[C@@H](O)CN3C(=O)C(c3cc(OCCN4CC[C@H](NC(=O)c5cc6c(cc5CS(C)(=O)=O)-c5cn(C)c(=O)c7[nH]cc(c57)CN6c5ncc(F)cc5F)C4)no3)C(C)C)=NC2=O)cc1` (single isomer, unassigned) [Example 1002.2], in the assay on MYC expression, the IC50 came to 25.7 nM and the “Maximum Inhibition (%)” value is reported as 90.3%. At BRD4, the DC50 stood at 0.31 nM and the “EOL-1 Sinf (%)” value was −65.0%.

Consider `Cc1ncsc1-c1ccc([C@]2(C)NC([C@@H]3C[C@@H](O)CN3C(=O)C(NC(=O)CCCCCCCCCCNC(=O)c3cc4c(cc3CS(C)(=O)=O)-c3cn(C)c(=O)c5[nH]cc(c35)CN4c3ncc(F)cc3F)C(C)(C)C)=NO2)cc1` (single isomer, unassigned) [Example 1006.1], for which, at BRD4, the DC50 came to 1.02 nM and the “EOL-1 Sinf (%)” value was −92.6%.

For the origin of these results see patent publication US11242344B2, “(4-hydroxypyrrolidin-2-yl)-heterocyclic compounds and methods of use thereof” (Genentech, Inc., priority 2017, dated 2022).
